Reference: patent publication US11766470B2, “Manufacture, formulation and dosing of apraglutide” (VectivBio AG, priority 2020, dated 2023)
Square brackets hold non-standard residues; d marks the D form. Peptide text beside a SMILES is read from it. ξ: configuration not given here. Ile(3ξ) = CCC(C)[C@H](N)C(=O)O; Thr(3ξ) = CC(O)[C@H](N)C(=O)O; Nle = CCCC[C@H](N)C(=O)O

System: patients with SBS-IF
Assay: Phase 2 placebo-controlled crossover trial in SBS-IF patients (Example 5): urine output, urine sodium, PS volume, oral fluid intake, hydration parameters, plasma L-citrulline, body composition
Format: in vivo, human
Description: The following non-limiting example describes results from a Phase 2 clinical trial in which subjects with SBS-IF were treated with the apraglutide formulations of the present disclosure. This Phase 2 trial investigated the safety and efficacy of 5 and 10 mg apraglutide in patients with SBS-IF.
Eight adult patients with SBS-IF were treated with apraglutide compositions of the present disclosure according to Table 6. Briefly, patients with SBS-IF were administered 5 mg apraglutide of the present disclosure or placebo once a week for four weeks. The patients were then administered 10 mg apraglutide of the present disclosure once a week for four weeks. Additionally, there was a washout period of 6-10 weeks between treatments.
The trial described in Example 5 was a double-blind, crossover, randomized, placebo-controlled, phase 2 trial followed by an additional treatment period in an open-label regimen. Eight adult patients (aged ≥18 to ≤80 years) with SBS-IF were enrolled in the trial. Patient eligibility was assessed during a screening visit. The main inclusion criteria were: Patients with SBS secondary to surgical resection of the small bowel with a jejuno- or ileostomy, at least 6 months since last bowel resection, a fecal output of at least 1500 g/day as recorded within the last 18 months, and PS-infusions≥3 times per week for ≥12 months according to the patient's medical record. Patients were excluded, if they had clinical signs of activity in inflammatory bowel disease, a history of cancer within ≤5 years or an inadequate hepatic, kidney, or heart function. Patients were also excluded, if they had received native GLP-2 or a GLP-2 analogue within the last 3 months.
The procedures during each treatment period were consistent.
Efficacy assessments were performed for each treatment period of 29 days. Patients received a paper diary for recording PS volume administration, urine collections and oral fluid intakes at specific time points. Patients performed home 48-hour urine collections at baseline (day −2 to 1), immediately after first treatment injection (day 1 to 3), and at the end of the treatment period (day 27-29, […] after the fourth administration of the trial drug). Urine was collected by the patient in a urine container with volume markings and 48-hour urine volumes were reported in the diary. After completing the 48-hour collection, patients transferred approximately 100 mL of urine from the container to a sample which was delivered at the next patient visit. The amount of sodium excreted per 48 hours was then calculated as the concentration of sodium in the sample multiplied by the total volume of urine collected. During each urine collection, weekly PS volume and content and daily oral fluid intake were kept constant. Since they were kept constant, increases in urine volume were a sign of increased fluid absorption. […] Patients were to adhere to their drinking menu during each urine collection and the concomitant 48-hour oral fluid intake was reported in the diary during each urine collection.
On day 20-22, patients were informed to record their spontaneous oral fluid intake during 48 hours. This measurement was included to investigate whether increased intestinal absorption was associated with a decrease in their spontaneous oral fluid intake.
Between day 4 and 24, PS volume reductions were allowed if deemed clinically necessary by the investigator. […] PS volume reductions were assessed during day 20-22. Patients returned to their baseline PS volume and content during the end of the treatment urine collection (day 27-29). Concomitant medications including proton-pump inhibitors, loperamide, and opiates were kept unchanged and stable throughout the trial. If necessary, adjustments could be made in the drinking menu and prescribed PS volume and content between treatment periods based on discussions between the patient and the investigator.
Body weight was measured using a levelled platform scale. […]

[1] = 5 mg vs 10 mg, Part A+B, day 1-3 after first injection
[2] = 5 mg vs 10 mg, Part A+B, day 20-22
[3] = 5 mg vs 10 mg, Part A+B, day 27-29
[4] = 5 mg vs 10 mg, Part A+B, end of treatment
[5] = 5 mg vs placebo, Part A+B, day 1-3 after first injection
[6] = 5 mg vs placebo, Part A+B, day 20-22
[7] = 5 mg vs placebo, Part A+B, day 27-29
[8] = 5 mg vs placebo, Part A+B, day 27-29, listed as Apraglutide
[9] = 5 mg vs placebo, Part A+B, end of treatment

CCCC[C@H](NC(=O)[C@H](CCC(=O)O)NC(=O)[C@H](CC(=O)O)NC(=O)[C@H](CO)NC(=O)[C@H](Cc1ccccc1)NC(=O)[C@H](CO)NC(=O)CNC(=O)[C@H](CC(=O)O)NC(=O)CNC(=O)[C@@H](N)Cc1c[nH]cn1)C(=O)N[C@H](Cc1ccccc1)C(=O)N[C@H](C(=O)N[C@H](C(=O)N[C@@H](CC(C)C)C(=O)N[C@@H](CC(=O)O)C(=O)N[C@@H](CC(C)C)C(=O)N[C@@H](CC(C)C)C(=O)N[C@@H](C)C(=O)N[C@@H](C)C(=O)N[C@@H](CCCNC(=N)N)C(=O)N[C@@H](CC(=O)O)C(=O)N[C@@H](Cc1ccccc1)C(=O)N[C@H](C(=O)N[C@@H](CC(N)=O)C(=O)N[C@@H](Cc1c[nH]c2ccccc12)C(=O)N[C@@H](CC(C)C)C(=O)N[C@H](C(=O)N[C@@H](CCC(N)=O)C(=O)N[C@H](C(=O)N[C@@H](CCCCN)C(=O)N[C@H](C(=O)N[C@H](C(=O)N[C@@H](CC(=O)O)C(N)=O)C(C)O)C(C)CC)C(C)O)C(C)CC)C(C)CC)C(C)CC)C(C)O (stereo partly drawn) [apraglutide, L-histidyl-glycyl-L-aspartyl-glycyl-L-seryl-L-phenylalanyl-L-seryl-L-aspartyl-L-glutamyl-L-norleucyl-D-phenylalanyl-L-threonyl-Lisoleucyl-L-leucyl-L-aspartyl-L-leucyl-L-leucyl-L-alanyl-L-alanyl-L-arginyl-L-aspartyl-L-phenylalanyl-L-isoleucyl-L-asparaginyl-Ltryptophanyl-L-leucyl-L-isoleucyl-L-glutaminyl-L-threonyl-L-lysyl-L-isoleucyl-L-threonyl-Laspartic acid amide] (H-HGDGSFSDE[Nle][dF][Thr(3ξ)][Ile(3ξ)]LDLLAARDF[Ile(3ξ)]NWL[Ile(3ξ)]Q[Thr(3ξ)]K[Ile(3ξ)][Thr(3ξ)]D-NH2)
Patients with increased relative urine volume output compared to placebo (exceeding 10%) (5 mg): 6 out of 8
Absolute urine output, adjusted mean change from baseline [1]: −26 (−462 to 409); mL/day
Relative urine output, adjusted mean change from baseline [1]: −12 (−43 to 19); %
Urine sodium excretion (%), adjusted mean change from baseline [1]: −43(−149 to 63); %
Urine sodium excretion, adjusted mean change from baseline [1]: −1 (−22 to 20); mmol/day
Oral fluid intake, adjusted mean change from baseline [2]: −119 (−396 to 157); mL/day
PS volume, adjusted mean change from baseline [2]: −380 (−851 to 91); mL/day
Relative PS volume, adjusted mean change from baseline [2]: −15 (−38 to 9); %
Relative oral fluid intake, adjusted mean change from baseline [2]: −7 (−17 to 3); %
Absolute urine output, adjusted mean change from baseline [3]: 84 (−514 to 682); mL/day
Relative urine output, adjusted mean change from baseline [3]: −14 (−51 to 23); %
Urine sodium excretion (%), adjusted mean change from baseline [3]: 266 (−266 to 798); %
Urine sodium excretion, adjusted mean change from baseline [3]: 32 (−37 to 101); mmol/day
Albumin, adjusted mean change from baseline [4]: 1.0 (−0.8 to 2.9); g/L
Aldosterone, adjusted mean change from baseline [4]: −151 (−3,570 to 3,268); pmol/L
Body weight, adjusted mean change from baseline [4]: −0.6 (−2.4 to 1.3); kg
Bone mineral content, adjusted mean change from baseline [4]: 12 (−57 to 82); g
CO2 total, adjusted mean change from baseline [4]: 1.0 (−1.4 to 3.4); mmol/L
Creatinine, adjusted mean change from baseline [4]: 4.6 (−12.3 to 21.5); umol/L
Fat body mass, adjusted mean change from baseline [4]: −1.44 (−2.92 to 0.04); kg
Hematocrit, adjusted mean change from baseline [4]: −0.4 (−1.2 to 0.4); vol/fr
Lean body mass, adjusted mean change from baseline [4]: 0.12 (−3.00 to 3.24); kg
Plasma L-citrulline, adjusted mean change from baseline [4]: −3.6 (−19.8 to 12.6); μmol/L
Protein, adjusted mean change from baseline [4]: −0.3 (−4.5 to 3.9); g/L
Relative body weight, adjusted mean change from baseline [4]: −1 (−4 to 2); %
Relative bone mineral content, adjusted mean change from baseline [4]: 0 (−3 to 3); %
Relative fat body mass, adjusted mean change from baseline [4]: −7 (−16 to 1); %
Relative lean body mass, adjusted mean change from baseline [4]: −0 (−8 to 7); %
Relative plasma L-citrulline, adjusted mean change from baseline [4]: −23 (−74 to 29); %
Urea, adjusted mean change from baseline [4]: 0.3 (−1.3 to 1.9); mmol/L
Fluid composite effect, estimated difference between the two doses (5 mg vs 10 mg, post-hoc, Part A+B): 594
Absolute urine output, adjusted mean change from baseline [5]: −38 (−456 to 381); mL/day
Relative urine output, adjusted mean change from baseline [5]: 6 (−24 to 35); %
Urine sodium excretion (%), adjusted mean change from baseline [5]: 65 ( −36 to 166); %
Urine sodium excretion, adjusted mean change from baseline [5]: 3 (−17 to 23); mmol/day
PS volume, adjusted mean change from baseline [6]: −89 (−543 to 366); mL/day
Relative PS volume, adjusted mean change from baseline [6]: −13 (−36 to 9); %
Relative oral fluid intake, adjusted mean change from baseline [6]: −9 (−18 to 1); %
Absolute urine output, adjusted mean change from baseline [7]: 711 (132 to 1,289); mL/day
Relative urine output, adjusted mean change from baseline [7]: 48 (12 to 84); %
Urine sodium excretion (%), adjusted mean change from baseline [7]: 166 (−342 to 675); %
Urine sodium excretion, adjusted mean change from baseline [7]: 56 (−10 to 123); mmol/day
Absolute urine output, adjusted mean change from baseline [8]: 711 mL/day
Relative urine output, adjusted mean change from baseline [8]: 48%
Urine sodium excretion, adjusted mean change from baseline [8]: 56 mmol/day
Albumin, adjusted mean change from baseline [9]: −0.0 (−1.8 to 1.8); g/L
Body weight, adjusted mean change from baseline [9]: 1.9 (0.1 to 3.7); kg
Bone mineral content, adjusted mean change from baseline [9]: −4 (−73 to 66); g
CO2 total, adjusted mean change from baseline [9]: 0.3 (−2.0 to 2.6); mmol/L
Creatinine, adjusted mean change from baseline [9]: −9.7(−25.8 to 6.4); umol/L
Fat body mass, adjusted mean change from baseline [9]: 1.77 (0.29 to 3.24); kg
Hematocrit, adjusted mean change from baseline [9]: 0.6 (−0.2 to1.4); vol/fr
Lean body mass, adjusted mean change from baseline [9]: 0.64 (−2.49 to 3.77); kg
Plasma L-citrulline, adjusted mean change from baseline [9]: 17.6 (2.0 to 33.2); μmol/L
Protein, adjusted mean change from baseline [9]: −0.4 (−4.2 to 3.4); g/L
